Publication PMC7737538 (ACS Medicinal Chemistry Letters, 2020)

Tests used:
[1] = tested on: VZV TK+ strain (strain Oka); type: cell-based, varicella zoster virus; conditions: HEL fibroblasts; strain not given
HCMV AD-169 strain = assay: HCMV antiviral assay in HEL fibroblasts, AD-169 strain; type: cell-based, human cytomegalovirus; conditions: strain not given
[2] = tested on: SARS-CoV-2 (two clinical isolates); assay: SARS-CoV-2 antiviral assay in Vero cells, statements without strain; type: cell-based
Vero cells = conditions: readout not given
in vitro = conditions: human
human rhinovirus (HRV) = conditions: read-out: EC50 against human rhinovirus (HRV); in vitro; cited from earlier work

CO[C@]1(CO)O[C@@H](n2ccc(N)nc2=O)C(F)(F)[C@@H]1O [1a]
activity against VZV (in words) [1]: completely devoid of activity
activity against HCMV (in words) (HCMV AD-169 strain): completely devoid of activity
antiviral activity against SARS-CoV-2 (in words) [2]: devoid of antiviral activity
cytotoxicity in Vero cells (in words) (Vero cells): devoid of antiviral activity and cytotoxicity

Nc1ccn([C@@H]2O[C@](F)(CO)[C@@H](O)C2(F)F)c(=O)n1 [1b]
antiviral activity against SARS-CoV-2 (in words) [2]: no selective antiviral activity

CO[C@]1(COP(=O)(N[C@@H](C)C(=O)OCc2ccccc2)Oc2ccccc2)O[C@@H](n2ccc(N)nc2=O)C(F)(F)[C@@H]1O (some centres unmarked) [2a]
antiviral activity against SARS-CoV-2 (in words) [2]: devoid of antiviral activity
cytotoxicity in Vero cells (in words) (Vero cells): devoid of antiviral activity and cytotoxicity

C[C@H](NP(=O)(OC[C@@]1(F)O[C@@H](n2ccc(N)nc2=O)C(F)(F)[C@@H]1O)Oc1ccccc1)C(=O)OCc1ccccc1 (some centres unmarked) [2b]
antiviral activity against SARS-CoV-2 (in words) [2]: minimal antiviral activity

C[C@H](NP(=O)(OC[C@H]1O[C@@H](n2ccc(N)nc2=O)C(F)(F)[C@@H]1O)Oc1ccccc1)C(=O)OCc1ccccc1 (stereo partly drawn) [2c, Benzyl ((((2R,3R,5R)-5-(4-Amino-2-oxopyrimidin-1(2H)-yl)-4,4-difluoro-3-hydroxytetrahydrofuran-2-yl)methoxy)(phenoxy)phosphoryl)-L-alaninate]
antiviral activity against SARS-CoV-2 (in words) [2]: lack of activity

CO[C@]1(CO)O[C@@H](n2ccc(=O)[nH]c2=O)C(F)(F)[C@@H]1O [12a]
activity against VZV (in words) [1]: completely devoid of activity
activity against HCMV (in words) (HCMV AD-169 strain): completely devoid of activity

O=c1ccn([C@@H]2O[C@](F)(CO)[C@@H](O)C2(F)F)c(=O)[nH]1 [12b]
activity against VZV (in words) [1]: completely devoid of activity
activity against HCMV (in words) (HCMV AD-169 strain): completely devoid of activity

Nc1ccn(C[C@@H](CO)OCP(=O)(O)O)c(=O)n1 [cidofovir]
CC50 (in vitro): 150 ± 29.1 µM

Nc1nc(O)c2ncn(COC(CO)CO)c2n1 [ganciclovir]
CC50 (in vitro): 231 ± 49.2 µM

Nc1ccn([C@@H]2O[C@H](CO)[C@@H](O)C2(F)F)c(=O)n1 [gemcitabine, 2′-deoxy-2′,2′-difluorocytidine, reference compound]
cytotoxicity in Vero cells (in words) (Vero cells): high cytotoxicity
EC50 (human rhinovirus (HRV)): 0.81 to 1.92 µM
